Values quoted from earlier work, collected in paper PMC4907212, “Mucosal and blood-brain barrier transport kinetics of the plant N-alkylamide spilanthol using in vitro and in vivo models” (BMC Complementary and Alternative Medicine, 2016).

Parameters: method as in PMID 19399718
Conditions: plasma, oral gavage in rats; cited from earlier work

dodeca-2E,4E,8E,10E/Z-tetraenoic acid isobutylamides
elimination half-life: 1.2 h
